What was measured:
[1] = Serum stability of ^67Cu complex in human plasma at 37° C., size exclusion chromatography; format: in vitro ADME; details: first 174 hours
Procedure: Serum stability studies were conducted by incubating a ^67Cu complex of related species (4) in human plasma at 37° C. [drawing 11]
At various time intervals, the complex was separated from the plasma by size exclusion chromatography and the complex breakdown was assessed. […] (FIGS. 1a and 1b).

[2] = Effect of pH on complexation of ^64Cu by compound (3), monitored by ITLC-SG; format: physicochemical
Procedure: The effect of pH on complexation of ^64Cu by compound (3) was investigated. Compound (3) was diluted into buffers of pH 3.0, 4.0, 5.0, 6.0, 7.0, 8.0 and 9.0. A sufficient amount of ^64Cu was added and the rate of complexation was monitored at (t=1, 2.5, 5, 10, 60 and 90 mins) (see method below) by Instant Thin Layer Chromatography (ITLC-SG). Complete complexation (>98%) was achieved within 1 min for all pH ≧4.0. The rate of complexation at pH 3.0 was slower. (FIG. 2).
Monitoring Complexation by ITLC-SG
ITLC-SG strips (10 cm×0.8 cm) were spotted with ˜1 μL of reaction mixture 1 cm from the bottom of the strip (origin) and were developed in a solvent containing 0.1 M sodium acetate (pH 4.5): ethanol=9:1. ^64Cu-compound (3) remains at the origin (Rf=0.0), and “free” ^64Cu appears at the solvent front (Rf=1.0).

[3] = mouse, in vivo
Procedure: The biodistribution of the ^64Cu complexes of compounds (1), (3) and (4) (0.10 ml intravenous injection) were evaluated in balb/c mice (5 animals per time point) at 3, 5, 10, 15, 20 and 30 minute time intervals. Biodistribution studies were performed in duplicate.

Row | Copper lost from the chelator [1] | Compound | Time to complete complexation of ^64Cu ([2]; all pH ≧4.0) [min] | Complexation of ^64Cu (complete complexation) ([2]; all pH ≧4.0, within 1 min, ITLC-SG) [%] | Rate of complexation of ^64Cu ([2]; pH 3.0, compared with pH ≧4.0) | Clearance of the complex (biodistribution, in words) [3]
1 | no more than 2% | C1CNCC2CNCCNCC(CN1)CNCCNC2.[67Cu+2] [^67Cu complex of compound (4)] |  |  |  | 
2 |  | Nc1ccc(CNC23CNCCNCC(N)(CNCCNC2)CNCCNC3)cc1 [compound (3)] | ≤ 1 | > 98 | slower | clear rapidly from the system
